In the first experiment the test system is N-acetylhexosamine-dehydrogenase (N-AHDH). The experiment can be described thus: Influence of inhibitor on enzyme activity.
Conditions: not given
The format is biochemical, Pseudomonas sp. No. 53. How it is done: In the table presented above, enzyme activity was measured in a solution containing 2 mM of metallic ion or inhibitor. There is known no substance particularly contributing to activation and stabilization.
(§1) To 1.8 ml of 0.1 M glycine-sodium hydroxide buffer (pH 9.5) is added 0.1 ml of 60 mM […] solution. After keeping the mixture at 37° C. for 10 minutes, 10 microliters of enzyme solution is added, and subsequently 0.1 ml of 0.3M N-acetylglucosamine solution is mixed to start the reaction. The reaction mixture is immediately transferred into an absorbance measurement cell (1 cm path) kept at 37° C., and absorbance is measured at intervals of one minute at a wavelength of 340 nm over a period of 5 minutes or, if desired, over a longer period of time. A quantity of enzyme capable of forming one micromole of NADH per one minute is taken as "one unit".
As to `Oc1cccc2cccnc12` [8-Hydroxyquinoline], the Residual activity was 110.

Still in this experiment, the particulars now being: solution containing 2 mM of metallic ion or inhibitor.
Take `[Ca+2].[Cl-].[Cl-]` [CaCl2]: the Residual activity is listed as 95%.
Turning to `O=S(=O)([O-])[O-].[Cd+2]` [CdSO4], the Residual activity amounted to 92%.
Regarding `O=S(=O)([O-])[O-].[Cu+2]` [CuSO4], the Residual activity was 94%.
On the same count and under the same terms, then `O=C(O)CN(CCN(CC(=O)O)CC(=O)O)CC(=O)O` [EDTA], with 101%; and `[Cl][Hg][Cl]` [HgCl2], with 35%; and `NC(=O)CI` [Iodoacetamide], with 104%.
Take `O=S(=O)([O-])[O-].[Mn+2]` [MnSO4]: the Residual activity is on record as 96%.
As to `[N-]=[N+]=[N-].[Na+]` [NaN3], the Residual activity worked out at 89%.
For `O=C(O)c1cc[c]([Hg][Cl])cc1` [PCMB], the Residual activity came to 97%.
For the molecule `CCCCCCCCCCCCOS(=O)(=O)O` [SDS], the Residual activity amounted to 62%.
On the same count and under the same terms, then `O=S(=O)([O-])[O-].[Zn+2]` [ZnSO4], with 95%.
In the case of `c1cnc2c(c1)ccc1cccnc12` [o-Phenanthroline], the Residual activity came out at 104%.
`c1ccc(-c2ccccn2)nc1` [α, α'-Dipyridyl]: the Residual activity came out at 107%.

For the next experiment the test system is unchanged. The experiment can be described thus: Action and substrate specificity of the enzyme. It is filed as biochemical, Pseudomonas sp. No. 53. The conditions noted are these: in the presence of NAD+. Here is the method: As shown in the following reaction scheme, this enzyme oxidizes N-acetylglucosamine or N-acetylgalactosamine to N-acetylglucosaminolactoneor N-acetylgalactosaminolactone in the presence of NAD^+ and, at the same time, reduces the NAD^+ to NADH. [drawing 1]
as §1
Turning to `CC(=O)N[C@H]1[C@H](O[C@H]2[C@H](O)[C@@H](NC(C)=O)C(O)O[C@@H]2CO)O[C@H](CO)[C@@H](O)[C@@H]1O` (stereo partly shown) [N,N'-diacetylchitobiose], the “Action of the enzyme upon the sugar (substrate specificity)” value (from here on “Action of the enzyme upon the sugar”) was “no action at all or hardly exercises an action”.
Take `CC(=O)N[C@H]1C(O)O[C@H](CO)[C@H](O)[C@@H]1O` (stereo partly shown) [N-acetylgalactosamine]: the “Action of the enzyme upon the sugar” value is reported as “oxidizes”.
With `CC(=O)N[C@H]1C(O)O[C@H](CO)[C@@H](O)[C@@H]1O` (stereo partly shown) [N-acetylglucosamine], the “Action of the enzyme upon the sugar” value is “oxidizes”.
On to `CC(=O)N[C@@H]1C(O)O[C@H](CO)[C@@H](O)[C@@H]1O` (stereo partly shown) [N-acetylmannosamine], for which the “Action of the enzyme upon the sugar” value was “only a slight action”.

The experiment is the same for the next values; noted with them: in the presence of NAD+; listed as acetylchitobiose.
`CC(=O)N[C@H]1[C@H](O[C@H]2[C@H](O)[C@@H](NC(C)=O)C(O)O[C@@H]2CO)O[C@H](CO)[C@@H](O)[C@@H]1O` (stereo partly shown) [N,N'-diacetylchitobiose]: the “Action of the enzyme upon the sugar” value is listed as “does not act”.

The values are drawn from patent publication US5068190A, “N-acetylhexosamine-dehydrogenase, process for producing same, method for the quantitative analysis of N-acetylglucosamine or N-acetylgalactosamine using same and kit for use in the quantitative analysis” (Noda Institute for Scientific Research, priority 1988, dated 1991).
